According to patent publication US8569511B2, “Substituted 3-(1H-benzo[d]imidazol-2-yl)-1H-indazole analogs as inhibitors of the PDK1 kinase” (University of Utah Research Foundation, priority 2011, dated 2013):
Read-outs that look alike come from different tables or passages of the source.

Assays:
[1] = test system: HEC-1A cells; assay: Cell viability assay (ATP-lite); type: cell-based; conditions: for IC50: Homo sapiens
Procedure: (§1) AN3-CA (PTEN-deficient), RL95-2 (PTEN-deficient), and HEC-1A (PTEN-wild type) cells were plated in 45 μl of RPMI-1640 media supplemented with 10% FBS and 1% Pen/Strep at a density of 1000 cells per well in white 384-well plates. Cells were allowed to attach by incubation overnight at 37° C. and 5% CO2. Test compounds were diluted to 10× concentrations in RPMI-1640 media (containing 3% DMSO) and 5 μl 1 of these dilutions were added in triplicate to the appropriate wells containing the cells. The plates containing the drug-treated cells and appropriate controls were incubated for 96 hours. At the end of the incubation, 40 μl of ATP-lite (PerkinElmer, Inc., Waltham, Massachussetts) reagent were added to each well and luminescence signal was measured on an EnVision microplate reader.
(§2) Alternatively, AN3-CA, RL95-2, HEC-1A endometrial cancer cell lines were plated at a density of 2000 cells per well in a 96 well culture plate in 45 μl of cell culture media and incubated overnight. […] Vehicle treated controls were also included and each condition was applied in quadruplicate. Following 96 hours of incubation, 35 μL of ATP-lite (PerkinElmer) reagent was added each well and allowed to react for 10 minutes. Plate was read on a Envision 2104 MultiLabel reader (PerkinElmer).
(§3) IC50 values are determined using GraphPad Prism 5 software. The data were entered as an X-Y plot into the software as percent inhibition for each concentration of the drug. The concentration values of the drug were log transformed and the nonlinear regression was carried out using the “sigmoidal dose-response (variable slope)” option within the GraphPad software to model the data and calculate IC50 values.

[2] = test system: RL95-2 cells; assay: Cell viability assay (ATP-lite); type: cell-based; conditions: for IC50: Homo sapiens
Procedure: as §1, §2, §3

[3] = test system: SK-OV-3; assay: Cell viability assay, cancer cell line panel; type: cell-based; conditions: Homo sapiens, mutation PIK3CA
[4] = test system: NCCIT; assay: Cell viability assay, cancer cell line panel; type: cell-based; conditions: Homo sapiens, mutation PTEN
[5] = test system: BT549; assay: Cell viability assay, cancer cell line panel; type: cell-based; conditions: Homo sapiens, BT-549; mutation PTEN
[6] = test system: HCT-15; assay: Cell viability assay, cancer cell line panel; type: cell-based; conditions: Homo sapiens, mutation KRAS, PIK3CA
[7] = test system: PC-3; assay: Cell viability assay, cancer cell line panel; type: cell-based; conditions: Homo sapiens, mutation PTEN
[8] = test system: MCF-7; assay: Cell viability assay, cancer cell line panel; type: cell-based; conditions: Homo sapiens, MCF7; mutation PIK3CA
[9] = test system: HT-29; assay: Cell viability assay, cancer cell line panel; type: cell-based; conditions: Homo sapiens, mutation PIK3CA, BRAF
[10] = test system: T47D; assay: Cell viability assay, cancer cell line panel; type: cell-based; conditions: Homo sapiens, mutation PIK3CA
[11] = test system: BT-20; assay: Cell viability assay, cancer cell line panel; type: cell-based; conditions: Homo sapiens, mutation PIK3CA
[12] = target: PDGFRA (Homo sapiens (Human), UniProt P16234); assay: Kinase profiling, fluorometric assays by Life Technologies; type: biochemical; conditions: profiling at 500 nM, FIG. 8
Procedure: (§4) The panel comprised 78 distinct protein kinases, and data are shown for a subset of 20 kineases (see FIG. 8). Kinase profiling was performed against a focus panel of kinases relevant to PDK1 signaling and other known oncogenic kinases. The activity profiling as performed at 500 nM and percent inhibition at that concentration was determined for each kinase shown.
(§5) The kinase specificity was measured using fluorometric assays performed by Life Technologies (Grand Island, N.Y.). Assay conditions vary for each kinase and are available from Life Technologies, Grand Island, NY. For example, the assay conditions for PDK1 are as follows. The 2×PDK1/Ser/Thr-07 mixture is prepared in 50 mM Tris pH 8.5, 0.01% BRIJ-35, 10 mM MgCl2, 1 mM EGTA, 0.02% NaN3. The final 10 μL Kinase Reaction consists of 7.36-38.7 ng PDK1 and 2 μM Ser/Thr 07. After the 1 hour kinase reaction incubation, 5 μL of a 1:32768 dilution of Development Reagent A is added.

[13] = target: VEGFR1 (Homo sapiens (Human), UniProt P17948); assay: as above; type: biochemical; conditions: profiling at 500 nM, FIG. 8
Procedure: as §4, §5

[14] = target: VEGFR2 (Homo sapiens (Human), UniProt P35968); assay: as above; type: biochemical; conditions: profiling at 500 nM, FIG. 8
Procedure: as §4, §5

[15] = target: p70S6K (Homo sapiens (Human), UniProt P23443); assay: as above; type: biochemical; conditions: profiling at 500 nM, FIG. 8
Procedure: as §4, §5

[16] = test system: phosphorylation of the ribosomal S6 protein; assay: Western blot of phospho-S6 in excised xenograft tumors; type: in vivo, athymic nude mice; conditions: western blot of tumors after the study, 50 mg/kg IP
Procedure: Cells were washed with PBS and whole cell lysates were prepared by incubating cells in […] (Invitrogen Corporation, Carlsbad, Calif.) supplemented with Protease Inhibitor Cocktail (Roche Applied Science, a division of Roche Diagnostics Corporation, Indianapolis, Ind.) and Phosphatase Inhibitor Cocktail (Roche) on ice for 30 minutes. After centrifuging the lysates at 12,000 rpm for 10 minutes at 4° C., the supernatant was collected. Protein concentration was determined using BCA Assay. The same amounts of protein were run on NuPAGE 4-12% Bis-Tris Gel, and then transferred onto a PVDF membrane. […]
The in vivo effects of compounds were determined in a mouse subcutaneous xenograft tumor model wherein AN3-CA cells were implanted subcutaneously into the hind flank of athymic nude mice. […] Tumor volume was determined using the formula L×W2×0.5, where L is the longest length, and W is the shortest length. Tumor volume and body weight was measured twice a week.
Following the study, the tumors from the vehicle and test compound groups were removed from the animals and analyzed for phosho-S6 levels by western blot (FIG. 10C). […]

Chain of p70S6K (P23443 whole entry): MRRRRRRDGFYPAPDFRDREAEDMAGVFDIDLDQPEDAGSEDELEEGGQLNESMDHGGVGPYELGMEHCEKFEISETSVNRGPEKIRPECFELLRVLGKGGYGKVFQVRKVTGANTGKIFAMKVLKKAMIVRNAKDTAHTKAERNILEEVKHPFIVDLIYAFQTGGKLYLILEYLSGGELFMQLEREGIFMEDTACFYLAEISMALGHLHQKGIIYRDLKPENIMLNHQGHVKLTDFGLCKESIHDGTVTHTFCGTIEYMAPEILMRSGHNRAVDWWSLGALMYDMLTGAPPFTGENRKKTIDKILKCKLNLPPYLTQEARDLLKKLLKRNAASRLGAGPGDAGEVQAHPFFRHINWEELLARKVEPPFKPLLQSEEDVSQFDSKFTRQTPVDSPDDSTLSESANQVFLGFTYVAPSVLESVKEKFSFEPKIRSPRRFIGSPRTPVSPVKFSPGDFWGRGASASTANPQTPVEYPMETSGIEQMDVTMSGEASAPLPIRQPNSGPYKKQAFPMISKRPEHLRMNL
Chain of VEGFR1 (P17948 27-1338): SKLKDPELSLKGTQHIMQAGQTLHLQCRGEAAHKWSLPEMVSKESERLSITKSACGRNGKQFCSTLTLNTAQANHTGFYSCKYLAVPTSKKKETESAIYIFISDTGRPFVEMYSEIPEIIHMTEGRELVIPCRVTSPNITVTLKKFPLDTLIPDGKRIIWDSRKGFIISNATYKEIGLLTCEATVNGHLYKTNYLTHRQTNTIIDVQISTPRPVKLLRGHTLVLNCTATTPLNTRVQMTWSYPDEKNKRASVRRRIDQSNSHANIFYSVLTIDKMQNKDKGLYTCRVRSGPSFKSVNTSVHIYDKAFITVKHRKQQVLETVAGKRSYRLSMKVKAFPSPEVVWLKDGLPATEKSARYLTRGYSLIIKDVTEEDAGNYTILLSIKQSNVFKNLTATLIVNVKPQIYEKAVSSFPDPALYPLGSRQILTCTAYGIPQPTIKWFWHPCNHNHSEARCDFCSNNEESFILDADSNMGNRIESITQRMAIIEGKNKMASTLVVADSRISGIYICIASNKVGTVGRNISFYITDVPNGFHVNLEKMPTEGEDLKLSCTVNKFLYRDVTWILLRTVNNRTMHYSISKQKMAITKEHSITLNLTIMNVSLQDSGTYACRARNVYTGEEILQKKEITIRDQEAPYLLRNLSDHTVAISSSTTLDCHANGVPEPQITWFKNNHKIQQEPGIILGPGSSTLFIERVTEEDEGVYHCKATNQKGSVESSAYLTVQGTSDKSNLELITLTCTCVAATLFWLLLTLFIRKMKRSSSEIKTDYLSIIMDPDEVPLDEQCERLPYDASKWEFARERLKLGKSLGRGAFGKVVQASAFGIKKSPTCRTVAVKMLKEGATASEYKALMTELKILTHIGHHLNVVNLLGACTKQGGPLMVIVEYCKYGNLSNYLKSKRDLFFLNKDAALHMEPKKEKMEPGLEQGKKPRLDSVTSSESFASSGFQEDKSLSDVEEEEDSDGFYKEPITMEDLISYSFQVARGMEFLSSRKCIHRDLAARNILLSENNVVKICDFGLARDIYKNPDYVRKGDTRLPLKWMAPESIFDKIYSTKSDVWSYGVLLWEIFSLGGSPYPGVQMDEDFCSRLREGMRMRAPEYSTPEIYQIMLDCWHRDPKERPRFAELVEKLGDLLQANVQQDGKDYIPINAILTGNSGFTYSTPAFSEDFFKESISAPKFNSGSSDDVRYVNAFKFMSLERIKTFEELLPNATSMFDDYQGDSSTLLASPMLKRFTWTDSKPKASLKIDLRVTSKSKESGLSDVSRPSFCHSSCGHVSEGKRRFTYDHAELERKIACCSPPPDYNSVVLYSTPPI
Chain of PDGFRA (P16234 24-1089): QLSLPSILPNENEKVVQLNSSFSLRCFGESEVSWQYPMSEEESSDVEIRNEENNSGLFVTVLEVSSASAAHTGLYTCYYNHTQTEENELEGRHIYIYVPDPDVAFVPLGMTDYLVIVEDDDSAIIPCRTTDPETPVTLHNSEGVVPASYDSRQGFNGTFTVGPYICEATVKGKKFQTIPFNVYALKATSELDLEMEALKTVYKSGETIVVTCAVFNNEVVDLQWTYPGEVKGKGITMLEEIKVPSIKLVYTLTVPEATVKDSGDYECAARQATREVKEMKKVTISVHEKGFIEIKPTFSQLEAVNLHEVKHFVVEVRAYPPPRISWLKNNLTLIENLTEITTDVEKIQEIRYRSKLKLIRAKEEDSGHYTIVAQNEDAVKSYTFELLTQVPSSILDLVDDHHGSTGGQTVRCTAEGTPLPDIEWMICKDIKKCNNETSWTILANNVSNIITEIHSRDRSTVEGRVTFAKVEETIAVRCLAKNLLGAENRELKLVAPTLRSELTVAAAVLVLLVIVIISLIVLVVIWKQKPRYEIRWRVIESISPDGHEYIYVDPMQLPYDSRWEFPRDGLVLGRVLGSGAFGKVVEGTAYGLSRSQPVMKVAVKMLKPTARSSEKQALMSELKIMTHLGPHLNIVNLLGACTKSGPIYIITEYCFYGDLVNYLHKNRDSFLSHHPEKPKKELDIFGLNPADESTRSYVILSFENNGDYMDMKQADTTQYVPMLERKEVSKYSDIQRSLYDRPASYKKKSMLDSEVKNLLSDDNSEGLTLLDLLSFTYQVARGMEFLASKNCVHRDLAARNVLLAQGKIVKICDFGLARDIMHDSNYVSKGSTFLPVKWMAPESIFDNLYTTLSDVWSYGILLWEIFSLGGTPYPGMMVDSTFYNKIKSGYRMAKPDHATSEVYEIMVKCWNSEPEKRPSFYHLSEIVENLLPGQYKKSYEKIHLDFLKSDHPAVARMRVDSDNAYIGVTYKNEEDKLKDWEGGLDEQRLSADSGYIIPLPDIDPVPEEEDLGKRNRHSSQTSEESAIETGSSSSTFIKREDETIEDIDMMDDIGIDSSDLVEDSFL
Chain of VEGFR2 (P35968 20-1356): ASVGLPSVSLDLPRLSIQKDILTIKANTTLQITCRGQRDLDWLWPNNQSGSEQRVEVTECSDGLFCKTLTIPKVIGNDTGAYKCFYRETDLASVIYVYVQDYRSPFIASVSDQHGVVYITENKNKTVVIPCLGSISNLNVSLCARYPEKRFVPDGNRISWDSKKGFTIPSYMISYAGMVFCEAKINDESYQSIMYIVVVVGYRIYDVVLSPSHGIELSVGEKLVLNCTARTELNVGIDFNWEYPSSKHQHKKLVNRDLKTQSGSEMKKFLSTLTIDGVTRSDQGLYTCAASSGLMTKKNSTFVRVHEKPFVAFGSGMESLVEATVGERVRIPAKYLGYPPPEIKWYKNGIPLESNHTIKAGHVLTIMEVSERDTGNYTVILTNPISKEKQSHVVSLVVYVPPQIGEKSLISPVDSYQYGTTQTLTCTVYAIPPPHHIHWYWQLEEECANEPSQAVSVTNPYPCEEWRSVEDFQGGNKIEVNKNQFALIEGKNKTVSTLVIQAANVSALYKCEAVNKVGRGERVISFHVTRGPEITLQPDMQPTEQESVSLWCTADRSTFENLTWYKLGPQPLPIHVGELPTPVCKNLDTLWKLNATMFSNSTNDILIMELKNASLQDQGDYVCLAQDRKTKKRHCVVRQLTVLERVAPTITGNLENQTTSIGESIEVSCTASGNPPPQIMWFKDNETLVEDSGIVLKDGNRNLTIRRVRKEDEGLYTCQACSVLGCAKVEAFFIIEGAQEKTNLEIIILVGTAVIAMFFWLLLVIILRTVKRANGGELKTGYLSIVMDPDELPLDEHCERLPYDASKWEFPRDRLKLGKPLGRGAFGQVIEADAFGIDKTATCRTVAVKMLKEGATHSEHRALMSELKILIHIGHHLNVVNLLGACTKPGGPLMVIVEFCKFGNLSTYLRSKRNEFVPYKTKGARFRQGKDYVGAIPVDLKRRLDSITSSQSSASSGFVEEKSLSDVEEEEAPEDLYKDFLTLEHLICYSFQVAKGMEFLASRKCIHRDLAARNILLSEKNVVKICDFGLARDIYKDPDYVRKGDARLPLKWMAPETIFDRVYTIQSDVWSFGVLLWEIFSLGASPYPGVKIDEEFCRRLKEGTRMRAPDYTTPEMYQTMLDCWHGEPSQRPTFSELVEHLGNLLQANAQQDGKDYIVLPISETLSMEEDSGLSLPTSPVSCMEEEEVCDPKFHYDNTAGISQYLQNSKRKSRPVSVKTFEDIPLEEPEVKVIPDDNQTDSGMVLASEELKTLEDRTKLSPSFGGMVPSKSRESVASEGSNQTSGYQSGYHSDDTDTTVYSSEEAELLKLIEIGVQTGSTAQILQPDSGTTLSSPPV

With `O=C(Nc1ccc2[nH]nc(-c3nc4ccc(N5CCOCC5)cc4[nH]3)c2c1)C1CC1(F)F` (stereo not drawn) [Compound 1, 2,2-difluoro-N-(3-(5-morpholino-1H-benzo[d]imidazol-2-yl)-1H-indazol-5-yl)cyclopropanecarboxamide] the “Potency in cell viability assay, HEC-1A (in words)” value ([1]; FIG. 6) was “relatively inactive”, the IC50 ([1]; HEC-1-A, Table VI panel, mutation KRAS, PIK3CA, read-out: IC50 cell viability, Hec-1A) was 3.76 µM and the IC50 ([1]; HEC-1A (PTEN-wild type), read-out: Cell Viability IC50 HEC-1A) was 3.78 µM. The “Potency in cell viability assay, RL-95-2 (in words)” value ([2]; FIG. 6) was “moderately potent”, the IC50 ([2]; RL95-2, Table VI panel, mutation PTEN, HRAS, read-out: IC50 cell viability, RL95-2) was 0.654 µM and the IC50 ([2]; RL95-2, read-out: IC50 cell viability, RL-95-A) was 0.479 µM. For the same compound, the IC50 ([2]; RL95-2 (PTEN mutation), read-out: Cell Viability IC50 RL95-2) was 0.479 µM, the IC50 [3] was 1.89 µM and the IC50 [4] was 2.11 µM. It also gave an IC50 [5] of 3.16 µM, an IC50 [6] of 6.99 µM and an IC50 [7] of 7.56 µM. The IC50 [8] was 8.79 µM, the IC50 [9] was 10.6 µM and the IC50 [10] was 12.8 µM. For the same compound, the IC50 [11] was 13.1 µM, the “Kinase profiling activity against PDGFRA (in words)” value [12] was “relatively potent activity” and the “Kinase profiling activity against VEGFR1 (in words)” value [13] was “relatively potent activity”. For the same compound, the “Kinase profiling activity against VEGFR2 (in words)” value [14] was “relatively potent activity” and the “Kinase profiling activity against p70S6K (in words)” value [15] was “potent activity”.
For `CC1CN(c2ccc3nc(-c4n[nH]c5ccc(NC(=O)C6CC6(F)F)cc45)[nH]c3c2)CCO1` (stereo not drawn) [Compound 2, 2,2-difluoro-N-(3-(5-(2-methylmorpholino)-1H-benzo[d]imidazol-2-yl)-1H-indazol-5-yl)cyclopropanecarboxamide], the “Phospho-S6 levels in tumors compared to the vehicle group” value [16] was “down-regulation of phospho-S6 levels”.
